Assay results from ChEMBL document CHEMBL1130770, “Solid phase synthesis of benzylamine-derived sulfonamide library” (Bioorg Med Chem Lett, 1998).

These compounds were tested against Prothrombin (Homo sapiens, UniProt P00734) (assay: Inhibition constant was evaluated for inhibitory activity against the blood coagulant thrombin).

Going from `CC(C)NC(=O)[C@H](Cc1ccc(CN)cc1)NS(=O)(=O)c1ccc2ccccc2c1` to `CC(C)N(C)C(=O)[C@H](Cc1ccc(CN)cc1)NS(=O)(=O)c1ccc2ccccc2c1`, the Ki falls from 31700 nM to 600 nM (53-fold).

First: NCc1ccc(C[C@H](NS(=O)(=O)c2ccc3ccccc3c2)C(=O)NCc2ccccc2)cc1
Second: CN(C)C(=O)[C@H](Cc1ccc(CN)cc1)NS(=O)(=O)c1ccc2ccccc2c1
The Ki of the first is 32-fold higher: 97200 nM for the first, 3060 nM for the second. The second binds more tightly here.

Compared with `CN(C(=O)[C@H](Cc1ccc(CN)cc1)NS(=O)(=O)c1ccc2ccccc2c1)C1CCCC1`, `NCc1ccc(C[C@H](NS(=O)(=O)c2ccc3ccccc3c2)C(=O)N2CCCC2)cc1` is 4-fold higher in Ki: 50 nM for the first, 200 nM for the second.

Going from `NCc1ccc(C[C@H](NS(=O)(=O)c2ccc3ccccc3c2)C(=O)N2CCC(O)CC2)cc1` to `CCCc1ccc(S(=O)(=O)N[C@@H](Cc2ccc(CN)cc2)C(=O)N(C)C2CCCC2)cc1`, the Ki falls from 15600 nM to 10 nM (1600-fold). The second binds more tightly here.
